Test results: patent US11684660B2, “Human PD1 peptide vaccines and uses thereof” (OHIO STATE INNOVATION FOUNDATION, priority 2017, dated 2023)
No end group written: not given here.

Experiments:
[1] = test system: murine colon carcinoma CT26 tumor cells; experiment: CT26 tumor challenge in Balb/c mice immunized with PD-1 constructs; assay type: in vivo
Method: Immunocompetent Balb/c mice of 6-8 weeks of age were purchased from Charles River Laboratories, Wilmington, Mass. and housed in The Ohio State University's University Laboratory Animal Resources (ULAR) facilitates. Isoflurane was used to anaesthetize the animals before cells injection and termination. Pre-immune sera samples were taken from the mice then they were immunized with 100 μg of peptide emulsified in Montanide ISA 720 (Seppic, Paris, France) and nor-MDP adjuvant (N-acetyl-glucosamine-3 yl-acetyl L-alanyl-D-isoglutamine). Mice received booster immunizations 3 and 6 weeks after the first. Several test sera samples were taken from the mice (FIG. 8).
10 days after the second boost, mice were inoculated with […] murine colon carcinoma CT26 tumor cells subcutaneous on the right flank. Tumor growth was monitored three times a week and sera samples were taken weekly and upon sacrifice of the animal. Control mice on day 0 were engrated with 1×10^5 CT26 tumor cells subcutaneous and received. The animals received 150 μg injections of anti-mouse antibodies directed against PD-1. Mice were monitored and scored for the formation of palpable tumors twice weekly and sacrificed if tumors became necrotic or exceeded the predetermined size of 2,000 mm3. Tumor diameters were measured twice a week. Tumor size was calculated according to the formula: V=[(length ×width2)/2]. Tumor volumes were measured in cubic millimeters with calipers and calculated with the following formula: A×B2×0.5, where A is the largest diameter, and B is the smallest diameter. All experiments were performed in accordance with the U.S. Public Health Service Policy on Humane Care and Use of Laboratory Animals and approved by the Ohio State University Institutional Animals Care and Use Committee and detailed in the accepted protocol
To assess performance of 4 different vaccine treatments on tumor growth, tumor size was measured periodically in mice, and the results were compared to those of positive and negative controls. There were 5 mice in each treatment group, each receiving the assigned MVF-peptide and then being inoculated with 1e5 CT26 (colon) tumor cells 10 days after the final boost of the treatment. Day 14 was considered the primary time point of interest, as the investigators believed waiting until day 19 allowed the tumors too much time to grow, resulting in similar sizes at that point of the experiment. Tumor size was measured in three ways: LWW (½*length*width*width) at all time points, LWH (½*length*width*height) at all time points, and terminal tumor weight at the end of the study. The mice treated with MVF-PD-a(45), group C, were sacrificed before day 19 due to the death of one mouse, so the comparisons can only be made between tumor size at day 14. Tumor size is in units of mm3 for LWW and LWH and grams for terminal tumor weight.
Due to small sample sizes in each group and inability to assume normality, the exact Wilcoxon rank-sum test was used to check for systematic differences between the distributions of tumor size at times 14 days and 19 days (FIGS. 12A-D and Tables 7-10). P-values given are for test comparing that column's control to the respective treatment, and are two-sided to account for the possibility of tumor size being systematically larger or smaller between treatment and control. As this is preliminary data, the p-values are not adjusted for multiple comparisons. Overall, there were few instances of significant differences between the distributions of a control and a treatment.
Immunocompetent Balb/c mice (5 mice/gp) of 6-8 weeks of age were immunized with 100 μg of peptide emulsified in Montanide ISA 720 (Seppic, Paris, France) and nor-MDP adjuvant (N-acetyl-glucosamine-3 yl-acetyl L-alanyl-D-isoglutamine). […]

[2] = target: T1, extracellular domain of human PD-L1 (hPD-L1) (Homo sapiens, UniProt Q9NZQ7); experiment: BIACORE SPR binding to immobilized rhPD-L1; conditions: 1 μM peptide
T1 construct: Recombinant hPD-L1 ectodomain was immobilized onto the gold surface of a CM5 sensor chip
T1 sequence (Q9NZQ7 19-238 limits assumed): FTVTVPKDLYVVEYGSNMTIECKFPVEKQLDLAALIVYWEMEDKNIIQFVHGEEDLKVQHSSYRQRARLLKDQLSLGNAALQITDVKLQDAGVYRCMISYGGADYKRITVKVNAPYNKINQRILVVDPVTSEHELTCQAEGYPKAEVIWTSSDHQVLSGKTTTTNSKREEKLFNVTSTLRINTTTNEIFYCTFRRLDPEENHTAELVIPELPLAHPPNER
Method: To test the activity of all the selected peptides, surface plasmon resonance (SPR) spectroscopy (BIACORE™ T200, at […]) was used to measure their binding affinities to the extracellular domain of human PD-L1 (hPD-L1). Recombinant hPD-L1 ectodomain was immobilized onto the gold surface of a CM5 sensor chip by direct amine coupling.
1 μM BSA was used as the negative control. The chip was regenerated by 10 mM Glycine-HCl, pH 2.5(FIG. 3E).
1 μM of various PD-1 peptides were injected over the chip for 1 min at 10 μl/min followed by 1 min dissociation and then 1 min regeneration with 10 mM Glycine-HCl, pH 2.5 for each run.

KLLSLIKGVIVHRLEGVE-GPSL-GAISLAPKAQIKESLRAEL-CONH2 (KLLSLIKGVIVHRLEGVEGPSLGAISLAPKAQIKESLRAEL-NH2) [MVF-PD-1 (92-110)]
inhibition of tumor growth ([1]; Day 14, FIG. 15): significant inhibition of tumor growth | median terminal tumor weight ([1]; end of study, 5 mice/group): 1.1 grams | difference in tumor size distribution versus controls ([1]; exact Wilcoxon rank-sum test, two-sided, unadjusted): systematically smaller tumor sizes than the positive control | median tumor size LWH, Day 19 ([1]; median, 5 mice/group): 819 mm3 | median tumor size LWW, Day 19 ([1]; median, 5 mice/group): 1080 mm3 | median tumor size LWH, Day 14 ([1]; median, 5 mice/group, ½*length*width*height): 270 mm3 | median tumor size LWW, Day 14 ([1]; median, 5 mice/group, ½*length*width*width): 384 mm3 | binding to immobilized rhPD-L1 (in words) [2]: bind | SPR response of peptide binding to immobilized rhPD-L1 ([2]; 1 min at 10 μl/min): around 110 RU
